According to patent publication US20240000741A1, “ALL-TRANS RETINOIC ACID ENHANCES RADIOTHERAPY AND OVERCOMES IMMUNE SUPPRESSION FOR CANCER THERAPY” (The University of Chicago, priority 2022, published 2024):

Columns and labels:
Format in all cases: in vivo, mouse
[1] = system: immune cells in tumors; assay: Flow cytometric analysis of immune cells in treated MC38 tumors and draining lymph nodes
From the text: (§1) Single cell suspensions were obtained as previously described (40). Cells were blocked with anti-Fc receptor (2.4 G2, BioXCell, Lebanon, New Hampshire, United States of America) and stained for live/dead with Zombie UV, followed staining using antibodies against CD45, CD4, CD8, NK1.1, CD11b, CD11c, Ly6C, Ly6G, F4/80, CD44, CD62L.
The following antibodies were used for high-dimensional flow analysis: BV605-CX3CR, BV650-XCR1, PB-CD11 b, BV510-CD24, BV711-CD64, BV785-F4/80, AF532-CD45, PerCP-Cy5.5-1-A/I-E, PerCP-eFluor710-Flt3, PE-Cy7-CD11c, FITC-Ly6C, PE-iNOS, PE-Dazzle 594-CD103, APC-TNF, Alexa Fluor 700-CD206, and APC-Cy7-SIRPα. For IFN-γ and GrzB (515407) staining, cells were cultured with PMA/ionomycin and brefeldin A (423303, BioLegend, San Diego, California, United States of America) for 6 hours followed by intracellular staining using BD fix/perm intracellular staining kit (554714, BD Biosciences, Franklin Lakes, New Jersey, United States of America). For TNF-α staining, cells were stimulated by PMA/ionomycin and brefeldin A for 4 hours followed by intracellular staining. Foxp3 (17-5773-82, Thermo Fisher Scientific, Waltham, Massachusetts, United States of America) Ki67 (Clone 16-A8, BioLegend, San Diego, California, United States of America) and iNOS staining were performed following Foxp3 staining protocol (00-5523-00, Thermo Fisher Scientific, Waltham, Massachusetts, United States of America). Cells were analyzed on Fortessa flow cytometer (BD Biosciences, Franklin Lakes, New Jersey, United States of America) or on Aurora spectral cytometer (Cytek Biosciences, Fremont, California, United States of America. Data was analyzed with software sold under the tradename FLOWJO software (FlowJo LLC, Ashland, Oregon, United States of America).
Immune cells in tumors 4 days after the start of the treatment were examined. […] In CD11b+ subsets, Ly6C^+ cells, including CD11c^+Ly6C^+ cells, increased by 4-fold in tumors receiving the combination treatment. […] Next, the DC population was examined by analyzing high-dimensional flow cytometry data using traditional dendritic cell (DC) markers. Monocyte-derived dendritic cells (MoDCs) (Ly6C^+CD11 b^+CD11c^+ MHC-II^+CXCR3^+CD64^+SIRPα^+CD206^− cells), a low level of type two dendritic cells (DC2s) (Ly6C^−CD11b^+CD11c^+MHC-11^+CXCR3^+CD64^−SIRPα+CD206^−) and a very low level of type one dendritic cells (DC1s) (Ly6C^−CD11b^−CD11c^+MHC-11^+ CXCR1^+CD103^+CD64^−) were detected in IR and RA treated tumors.

[2] = system: nitrite (iNOS product); assay: Nitrite assay of tumor fragments cultured ex vivo; settings: IR+RA treated tumors, day 4, 2 hours culture
Protocol: Whole tumors were excised at indicated time point post treatment. Tumors were weighed and homogenized in PBS with the presence of protease inhibitor cocktails at a ratio of 1 ml per gram of tissue. 25 μl of supernatants were subjected to a bead-based cytokine and chemokine assay (a mouse inflammation panel and chemokine panel sold under the tradename LEGENDPLEX™ (BioLegend, San Diego, California, United States of America). The assays were analyzed using a LSRII flow cytometer and software sold under the tradename LEGENDPLEX™ (both from BioLegend, San Diego, California, United States of America). IFN-γ was measured using IFN-γ flex CBA set (BD Biosciences, Franklin Lakes, New Jersey, United States of America). TNF-α concentration was measured using ELISA kit from R&D Systems (MTA00B; Minneapolis, Minnesota, United States of America). For nitrite assay, equal weight of tumors were cut into pieces and cultured in DMEM medium for 2 hours. The production of NO in the supernatants was measured indirectly by measuring the concentration of nitrite by using the Griess reagent nitrite measurement kit (Cell Signaling Technology, Danvers, Massachusetts, United States of America; #13547).

[3] = system: MC38 cell antigen-specific CD8+ T cells; assay: ELISPOT assay for IFN-γ-secreting CD8+ T cells
Protocol: MC38 cells were irradiated (40 Gy) and cultured overnight. CD8^+ T cells were isolated with EasySep mouse CD8+ positive selection kit (18953, STEMCELL Technologies, Vancouver, Canada) from draining lymph nodes of tumor-bearing mice on day 8 after treatment. 2×10^5 isolated CD8^+ T cells and 2×10^4 irradiated MC38 cells were plated onto 96-well PVDF-backed microplates coated with monoclonal antibody specific for mouse IFN-γ for 72 hours. Spots were developed by following the manufacturer's protocol (BD Biosciences, Franklin Lakes, New Jersey, United States of America).

[4] = system: immune cells in non-irradiated tumors; assay: Flow cytometric analysis of non-irradiated tumors in the two-tumor model
From the text: as §1
More CD8^+ T and CD4^+ T cells were also observed in the non-irradiated tumors when primary tumors received IR+RA treatment.

[5] = IR and RA treatment, high-dimensional flow cytometry
[6] = IR+RA vs single treatment, day 8
[7] = IR+RA, 4 days after start of treatment
[8] = after IR+RA combination treatment
[9] = 8 days after IR+RA combination treatment

CC1=C(/C=C/C(C)=C/C=C/C(C)=C/C(=O)O)C(C)(C)CCC1 [RA, all-trans retinoic acid]
expression of TNF-α in CD11b+ cells ([1]; IR and RA combination treatment): Elevated expression
DC1 population [1, 5]: not changed
DC2 population [1, 5]: not changed
level of monocyte-derived dendritic cells (MoDCs) [1, 5]: significantly induced
increase of CD8+ T cells infiltration in tumors ([1]; IR+RA compared to IR treated tumors, eight days after treatment commencement, p<0.05): about 3 fold
ratio of CD8+ IFN-γ+ cells to Treg ([1]; IR+RA compared to any single treatment, day 8): increased significantly
percentage of CD8+ IFN-γ+ cells in tumors and draining lymph nodes [1, 6]: increased
percentage of CD8+GzmB+ cells in tumors and draining lymph nodes [1, 6]: increased
CD11b+iNOS+ cells in tumors [1, 7]: 11.1%
increase of Ly6C+ cells, including CD11c+Ly6C+ cells, in CD11b+ subsets [1, 7]: 4 fold
percentage of CD4+ T cells in tumors ([1]; IR+RA, day 4 post treatment): no significant change
percentage of CD8+ T cells in tumors ([1]; IR+RA, day 4 post treatment): only a marginal change
percentage of Foxp3+ (Treg) cells in CD4+ T cells ([1]; IR+RA, day 8): decreased
CD11b+CD11c+iNOS+TNF-α+ cells in tumors ([1]; IR+RA, day 8, compared to any other treatment group): more
number of iNOS-producing Inf-MACs in tumors ([1]; IR+RA, tumors in CCR2 KO hosts vs WT mice): significantly lower
CD11b+iNOS+ cells in tumors ([1]; RA alone, 4 days after start of treatment): 1.8%
Inf-MAC induction by IR plus RA ([1]; Rag1−/− hosts given IFN-γ−/− T cells compared to WT T cells): significantly abrogated
Ki67+ proliferation in DLN, CD8+ and CD4+ [1, 8]: increased
percentage of naïve T cells (CD62L+CD44−) in DLN, CD8+ and CD4+ [1, 8]: decreased
nitrite level in culture media of tumors cultured ex vivo [2]: 19.8 µM
tumor antigen-specific CD8+ T cell priming in draining lymph nodes (IFN-γ ELISPOT) ([3]; IR+RA compared to control or single treatments): significantly enhanced
priming of CD8+ T cells from DLN of non-irradiated tumors (IFN-γ production) ([3]; primary tumor received IR+RA combination treatment): augmented
PD-L1 expression on DCs in non-irradiated tumors ([4]; 3 days post IR+RA treatment): Increased
PD-L1 expression on tumor cells in non-irradiated tumors ([4]; 3 days post IR+RA treatment): Increased
CD11c+iNOS+ cells in non-irradiated tumor [4, 9]: increased
proportion of CD11b+ cells in non-irradiated tumors [4, 9]: significantly increased proportion
proportion of CD11b+CD11c+Ly6C+ cells in non-irradiated tumors [4, 9]: significantly increased proportion
CD4+ T cells in non-irradiated tumors ([4]; primary tumors received IR+RA): More
CD8+ T cells in non-irradiated tumors ([4]; primary tumors received IR+RA): More
Foxp3+CD4+ T cells in non-irradiated tumors ([4]; primary tumors received IR+RA): marked decrease
proportion of CD4+ IFN-γ+ cells in non-irradiated tumors ([4]; primary tumors received IR+RA): increased
proportion of CD8+ IFN-γ+ cells in non-irradiated tumors ([4]; primary tumors received IR+RA): increased
proportion of CD8+GzmB+ cells in non-irradiated tumors ([4]; primary tumors received IR+RA): increased
